Test results from PMC8635778 (Angewandte Chemie (International ed. in English), 2020).

Legend:
[1] = test system: papillary RCC cell line (ACHN) orthotopic xenograft; assay: fluorescence imaging of orthotopic papillary RCC xenograft; format: in vivo, mice; conditions: cancerous vs normal kidney tissue
[2] = mouse, in vivo, iv

amount found in the feces [2]: 85.3 % ID | amount in feces, times higher than ICG-PEG45 [2]: 29.8 times
Structure (SMILES): CC1(C)C(/C=C/C=C/C=C/C=C2\N(CCCCS(=O)(=O)O)c3ccc4ccccc4c3C2(C)C)=[N+](CCCCS(=O)(=O)[O-])c2ccc3ccccc3c21 [ICG, indocyanine green]
hyperfluorescent imaging of RCC in the kidneys (in words) [1]: failed to hyperfluorescently light up RCC
